This note sets out measurements from publication PMC7558257 (Acta Pharmaceutica Sinica. B, 2020).

In the assay the target is Human dihydroorotate dehydrogenase (DHODH) (Homo sapiens, UniProt Q02127). Put plainly: In vitro DHODH enzyme inhibition assay. Format: biochemical. Conditions: for inhibition at 10 µM: read-out: Inhibition (%) at 10 μmol/L; for potency loss relative to naphthyl compound 24: vs. 24.
Human dihydroorotate dehydrogenase (DHODH), sequence (Q02127 whole entry): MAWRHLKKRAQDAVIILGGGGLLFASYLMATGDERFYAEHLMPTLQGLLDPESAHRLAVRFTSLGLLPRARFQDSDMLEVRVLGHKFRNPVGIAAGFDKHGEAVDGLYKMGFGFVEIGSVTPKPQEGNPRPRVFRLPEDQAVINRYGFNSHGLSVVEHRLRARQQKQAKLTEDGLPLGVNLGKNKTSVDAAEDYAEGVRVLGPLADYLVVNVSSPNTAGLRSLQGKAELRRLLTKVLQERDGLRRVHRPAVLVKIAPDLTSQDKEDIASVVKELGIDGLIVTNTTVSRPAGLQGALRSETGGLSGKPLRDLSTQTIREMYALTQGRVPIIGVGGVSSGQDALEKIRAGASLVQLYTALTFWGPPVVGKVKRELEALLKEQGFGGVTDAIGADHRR

As for `O=C(COc1ccc([N+](=O)[O-])cc1)Nc1ccccc1C(=O)O` [Compound 9, 2-(2-(4-Nitrophenoxy)acetamido)benzoic acid], the inhibition at 10 µM worked out at 45.3%. With `O=C(COc1ccccc1)Nc1ccccc1C(=O)O` [Compound 10], the inhibition at 10 µM came to 31.7%.

For the compound `C/C(=C\c1ccccc1)C(=O)Nc1ccccc1C(=O)O` [Compound 11], the inhibition at 10 µM came to 85.6%. For the compound `C/C(=C\c1ccc(C(F)(F)F)cc1)C(=O)Nc1ccccc1C(=O)O` [Compound 12], the IC50 stood at 1040 ± 40 nM and the inhibition at 10 µM was found to be 82.3%. The like results for `C/C(=C\c1ccc(C(F)(F)F)nc1)C(=O)Nc1ccccc1C(=O)O` [Compound 13] were, in that order, 6110 ± 102 nM and 69.3%. The like results for `COc1ccc(/C=C(\C)C(=O)Nc2ccccc2C(=O)O)cc1` [Compound 14] were, in that order, 561 ± 14 nM and 88.7%. In the case of `C/C(=C\c1ccc(C(C)(C)C)cc1)C(=O)Nc1ccccc1C(=O)O` [Compound 15], it took 836 ± 21 nM to reach half-maximal inhibition (IC50) and the inhibition at 10 µM came out at 86.6%. `C/C(=C\c1ccc(C)c(C)c1)C(=O)Nc1ccccc1C(=O)O` [Compound 16]: the IC50 was found to be 394 ± 4 nM and the inhibition at 10 µM was 92.9%.

Turning to `C/C(=C\c1ccc(C)c(Cl)c1)C(=O)Nc1ccccc1C(=O)O` [Compound 17], the midpoint of inhibition, the IC50, lay at 384 ± 16 nM and the inhibition at 10 µM worked out at 91%.

Take `C/C(=C\c1ccc(Cl)c(C(F)(F)F)c1)C(=O)Nc1ccccc1C(=O)O` [Compound 18]: the midpoint of inhibition, the IC50, lay at 894 ± 63 nM and the inhibition at 10 µM is 84.6%. On to `C/C(=C\c1ccc(Cl)c(Cl)c1)C(=O)Nc1ccccc1C(=O)O` [Compound 19], for which half-maximal inhibition (IC50) was put at 529 ± 24 nM and the inhibition at 10 µM came to 91.7%. The like results for `COc1ccc(/C=C(\C)C(=O)Nc2ccccc2C(=O)O)cc1OC` [Compound 20] were, in that order, 612 ± 11 nM and 91.5%.

For `C/C(=C\c1cc(Cl)cc(Cl)c1)C(=O)Nc1ccccc1C(=O)O` [Compound 21], half-maximal inhibition (IC50) required 724 ± 28 nM and the inhibition at 10 µM is 89.4%.

Consider `C/C(=C\c1ccc2c(c1)CCC2)C(=O)Nc1ccccc1C(=O)O` [Compound 22], for which the IC50 was 252 ± 17 nM and the inhibition at 10 µM stood at 86.9%. With `C/C(=C\c1ccc2c(c1)CCCC2)C(=O)Nc1ccccc1C(=O)O` [Compound 23], half-maximal inhibition (IC50) was put at 115 ± 1 nM and the inhibition at 10 µM was 85.2%. For `C/C(=C\c1ccc2ccccc2c1)C(=O)Nc1ccccc1C(=O)O` [Compound 24], in that order: 75 ± 2 nM and 93.9%.

As for `COc1ccc2cc(/C=C(\C)C(=O)Nc3ccccc3C(=O)O)ccc2c1` [Compound 25], the midpoint of inhibition, the IC50, lay at 129 ± 8 nM and the inhibition at 10 µM was 88.2%. For `C/C(=C\c1ccc2cc(Br)ccc2c1)C(=O)Nc1ccccc1C(=O)O` [Compound 26], in that order: 448 ± 8 nM and 85.4%. For `C/C(=C\c1ccc2c(Cl)cccc2c1)C(=O)Nc1ccccc1C(=O)O` [Compound 27], in that order: 256 ± 9 nM and 96.8%. For `C/C(=C\c1ccc2ccccc2c1F)C(=O)Nc1ccccc1C(=O)O` [Compound 28], in that order: 57 ± 2 nM and 89.3%. With `C/C(=C\c1ccc2ccccc2c1Cl)C(=O)Nc1ccccc1C(=O)O` [Compound 29], it took 78 ± 3 nM to reach half-maximal inhibition (IC50) and the inhibition at 10 µM came out at 96.4%. For `C/C(=C\c1ccc2ccccc2c1Br)C(=O)Nc1ccccc1C(=O)O` [Compound 30], in that order: 58 ± 1 nM and 90.2%. As to `C/C(=C\c1cc2ccccc2cn1)C(=O)Nc1ccccc1C(=O)O` [Compound 31], half-maximal inhibition (IC50) was put at 646 ± 9 nM, the inhibition at 10 µM amounted to 87.4% and the “potency loss relative to naphthyl compound 24” value stood at 8 fold. The like results for `C/C(=C\c1cc2ccccc2n1C)C(=O)Nc1ccccc1C(=O)O` [Compound 32, (E)-2-(2-Methyl-3-(1-methyl-1H-indol-2-yl)acrylamido)benzoic acid] were, in that order, 317 ± 8 nM, 84.3% and 4 fold. As to `C/C(=C\c1ccc(-c2ccccc2)cc1)C(=O)Nc1ccccc1C(=O)O` [Compound 33], the IC50 was found to be 626 ± 13 nM and the inhibition at 10 µM is 89.8%. For `C/C(=C\c1ccc(Oc2ccccc2)cc1)C(=O)Nc1ccccc1C(=O)O` [Compound 34], in that order: 630 ± 14 nM and 90.4%. The like results for `C/C(=C\c1cccc(Oc2ccccc2)c1)C(=O)Nc1ccccc1C(=O)O` [Compound 35] were, in that order, 597 ± 6 nM and 89.5%. For `O=C(COc1ccc2ccccc2c1)Nc1ccccc1C(=O)O` [Compound 36], in that order: 1870 ± 48 nM and 76.1%. With `CC(C)(Oc1ccc2ccccc2c1)C(=O)Nc1ccccc1C(=O)O` [Compound 37, 2-(2-Methyl-2-(naphthalen-2-yloxy)propanamido)benzoic acid], the half-inhibitory concentration (IC50) was > 10000 nM and the inhibition at 10 µM worked out at 20.3%. The like results for `O=C(/C=C/c1ccc2ccccc2c1)Nc1ccccc1C(=O)O` [Compound 38] were, in that order, 712 ± 12 nM and 87.5%. For `O=C(Nc1ccccc1C(=O)O)/C(Cl)=C/c1ccc2ccccc2c1` [Compound 39], in that order: 61 ± 1 nM and 88.6%.

`O=C(Nc1ccccc1C(=O)O)/C(Br)=C/c1ccc2ccccc2c1` [Compound 40]: the midpoint of inhibition, the IC50, lay at 85 ± 4 nM and the inhibition at 10 µM turned out to be 88.6%. The like results for `CC/C(=C\c1ccc2ccccc2c1)C(=O)Nc1ccccc1C(=O)O` [Compound 41] were, in that order, 606 ± 31 nM and 82.8%. Regarding `C/C(=C\c1ccc2ccccc2c1)C(=O)Nc1ccc(F)cc1C(=O)O` [Compound 42], the inhibition at 10 µM stood at 90%. In addition, where the note is “42 vs. 24”, the “improvement in potency for inhibition of DHODH vs. 24” value is reported as 1 fold. For `C/C(=C\c1ccc2ccccc2c1)C(=O)Nc1cc(F)ccc1C(=O)O` [Compound 43], the IC50 is > 10000 nM and the inhibition at 10 µM was 34.9%. For `C/C(=C\c1ccc2ccccc2c1)C(=O)Nc1ccc(Cl)cc1C(=O)O` [Compound 44], in that order: 623 ± 1 nM and 83%. The like results for `C/C(=C\c1ccc2ccccc2c1)C(=O)Nc1ccc(Br)cc1C(=O)O` [Compound 45] were, in that order, 1820 ± 20 nM and 80.8%. The like results for `C/C(=C\c1ccc2ccccc2c1)C(=O)Nc1ccc(C)cc1C(=O)O` [Compound 46] were, in that order, 688 ± 6 nM and 82.9%. As for `COc1ccc(NC(=O)/C(C)=C/c2ccc3ccccc3c2)c(C(=O)O)c1` [Compound 47], the IC50 is > 10000 nM and the inhibition at 10 µM worked out at 48.2%. The like results for `C/C(=C\c1ccc2ccccc2c1)C(=O)Nc1ccc(C(F)(F)F)cc1C(=O)O` [Compound 48] were, in that order, 874 ± 5 nM and 87.4%. The like results for `C/C(=C\c1ccc2ccccc2c1)C(=O)Nc1sccc1C(=O)O` [Compound 49] were, in that order, 2130 ± 110 nM and 79.3%.
